Laboratory results published in EP4653443A1, “STEREOISOMER AND DEUTERATED DERIVATIVE OF PYRAZOLOQUINAZOLINE COMPOUND AND USE” (Phil Rivers Technology Co., Ltd, priority 2023, dated 2024).
In brackets after ≈: the same amount, converted by molar mass. Where two headings read alike, the source gives them in different places.

What was measured:
[1] = Thermodynamic solubility test; assay type: physicochemical; details: phosphate buffer, aqueous buffer, thermodynamic from solid, pH 7.4, 25°C
Procedure: Weigh 7.098 g Na2HPO4 (Solution A) and dissolve in 500 mL ultrapure water via sonication; weigh 3.40 g KH2PO4 (Solution B) and dissolve in 250 mL ultrapure water via sonication. Slowly add Solution B dropwise to Solution A and adjust the pH to 7.40 ± 0.05.
Shake at 1100 rpm, 25°C for 5 minutes; • i) Add 10 µL of the 1 mg/mL DMSO sample and 10 µL of buffer to 980 µL of methanol, then dilute 10-fold with methanol:water (1:1) as the standard sample for LC-MS/MS analysis.
Solubility was calculated using Excel. Solubility(μM) = (Areafiltered × DFfiltered)/(Areastd × DFstd) × [std] × DFstd [formula]

HCT116 cells = assay type: in vivo; details: for TGI: test endpoint (PG-D22), TGITV
Procedure: • Balb/c nude mice: SPF grade, female, 6-8 weeks old, weighing 16-20 g, purchased from SPF (Beijing) Biotechnology Co., Ltd. • HCT116 cells: purchased from ATCC;
HCT116 cells were cultured in RPMI-1640 medium containing inactivated 10% fetal bovine serum, 100 U/mL penicillin, 100 µg/mL streptomycin and 2 mM glutamine in an incubator at 37°C with 5% CO2. Once the cells reached confluence, they were subcultured into new flasks. The tumor cells in the logarithmic growth phase were used for inoculation of tumors in vivo.
The tumor cells were washed twice with PBS, and the cell concentration was adjusted to 5×10^7/ml. The resuspended tumor cells were inoculated subcutaneously in the right flank of the experimental animals at 100 µL/mouse, i.e. 5×10^6/mouse. When the tumor grew to an average tumor volume of […], the animals were grouped for drug administration according to the tumor volume, with a total of 7 groups, 8 animals in each group. The first day of group drug administration was recorded as PG-D0. Table 25. Administration Schedule
During the administration, the health status of the animals is monitored.
From grouping until the end of the experiment, mouse body weight was measured every 3 days using an electronic balance.
From grouping until the end of the experiment, the long and short diameters of the mouse tumors were measured every 3 days using an electronic vernier caliper, and the volume was calculated using the formula: Volume (TV) = 0.5 × long diameter × (short diameter)^2.
RTV is the relative tumor volume, that is, the ratio of the tumor volume after administration to that before administration.
Graphpad prism 8 statistical software was used to perform statistical analysis of tumor volume and tumor weight among groups using the One-Way ANOVA test (homogeneity of variance), and p < 0.05 was considered statistically significant.

[2] = 30 mg/kg p.o. q.d. 10 consecutive days
[3] = 60 mg/kg p.o. q.d. 10 consecutive days

Structure (SMILES) | solubility at 24 h [1] | TGI (HCT116 cells; [2]) | TGI (HCT116 cells; [3]) | mice died (HCT116 cells; 60 mg/kg p.o. q.d., 8 mice per group)
[2H]C1([2H])CN(c2ccc(OC(F)(F)F)c(Nc3ncc4c(n3)-c3c(c(C(N)=O)nn3CCO)CC4)c2)C([2H])([2H])[C@H]2CCCN21 [CPD04] | 3 µg/mL (≈ 5.33 µM) | 7.6% | 30.5% | 
CN1CCN(c2ccc(OC(F)(F)F)c(Nc3ncc4c(n3)-c3c(c(C(N)=O)nn3CCO)CC4)c2)CC1 [NMS-P937, onvansertib, reference compound] | 24.8 µg/mL (≈ 46.6 µM) | 44.1% | 64.2% | three
[2H]C1([2H])N(C)C([2H])([2H])C([2H])([2H])N(c2ccc(OC(F)(F)F)c(Nc3ncc4c(n3)-c3c(c(C(N)=O)nn3CCO)CC4)c2)C1([2H])[2H] [CPD06] | 22.6 µg/mL (≈ 41.8 µM) | 42.4% | 75.6% | 
